Results: patent US20240300905A1, “Quinazoline Compounds and Uses” (Prosetta Biosciences, Inc., priority 2023, published 2024)

Columns and labels:
Type in all cases: cell-based
plasmodium = experiment: Malaria screen (SYBR green fluorescence, plasmodium parasitemia culture); details: 0.5% plasmodium parasitemia culture, 48 hours
Method: Compound was added to a 0.5% plasmodium parasitemia culture for 48 hours, then treated with SYBR green (a dye with marked fluorescence enhancement upon contact with plasmodium DNA) and the fluorescence was measured in drug treated versus untreated cells to determine inhibitory effects (Smilkstein, et al., “Simple and inexpensive fluorescence-based technique for high-throughput antimalarial drug screening,” Antimicrob Agents Chemother, 2004 May; 48(5):1803-6. doi: 10.1128/AAC.48.5.1803-1806.2004. PMID: 15105138: PMCID: PMC400546).

Hennes-20 cells = experiment: Hennes-20 oncology screen (low vs high plating density, alamar Blue); details: 72 h, Hennes-20 cells, 72 hours compound incubation, alamar Blue; read-out: EC50
Method: All compounds mentioned as active were tested in Hennes. Select hits from the Hennes screen were sent for additional anti-cancer testing.
To screen compounds for oncology activity Hennes-20 cells were plated at low (500 cells/well) versus high (15,000 cells/well) densities and treated with DMSO (vehicle) or dose-titration of compounds. The rationale for this screen is that an intrinsically toxic compound should kill cells regardless of density, including in Hennes-20 cells. However, a compound that selectively triggers the arrest of proliferation will inhibit cell growth when plated at a low density will appear cytotoxic due to inhibition of cell growth when plated at a low density but will appear non-toxic to cells plated at a high density where the cells are approaching confluence and the readout detected by a cell viability assay is already close to the maximum.
To conduct the Hennes-20 screen, two 96 well plates were seeded with Hennes 20 cells in parallel where one was plated at a density of 500 cells/well and the other was plated at a density of 15,000 cells/well. 90 uL of minimum essential media was added to each well and plates were placed in a 37 degrees Celsius incubator for 24 hours. The next day, 10 ul of media containing dilutions of compound in DMSO were added to each plate. Six wells on each plate received 10 ul of media containing only DMSO. Each well was gently mixed 5 times with a 100 ul pipette. Plates were incubated at 37 degrees Celsius for 72 hours then 10 uL of alamar Blue was added to each well. Wells were mixed 5 times then incubated at 37 degrees Celsius for […]. Plates were then read at 530/590.
The rationale for the screen is as follows: Hennes-20 cells lack endogenous apoptosis. Cells plated at low density will proliferate and approach confluence in 72 hrs. A drug that arrests proliferation may have its proliferation blocking effect masked by the triggering of endogenous apoptosis. However, in the Hennes line, lacking endogenous apoptosis, such an arrest is manifest as a dose-dependent maintenance at low cell density. Since the high-density cells are plated close to confluence, the difference between Alamar Blue cell survival readings after 72 hrs reflects the ability of the drug to block proliferation in the low density-plated cells. In the high density-plated cells any diminution of Alamar Blue readout vs vehicle control is due to intrinsic toxicity, not proliferation arrest, since cells were already at confluence. Thus, a compound that appears toxic (low Alamar Blue readings after 72 hrs) on the low-density plate, but which appears non-toxic (high Alamar Blue readings after 72 hrs) on the high-density plate, must be arresting proliferation, since intrinsic compound toxicity should be observed at both low and high cell densities, not selectively on the low-density plate.

NL4-3 Rluc virus = experiment: HIV screen (NL4-3 Rluc virus in MT-2 cells, luciferase readout); details: Human immunodeficiency virus 1, NL43, MT2, 96 h
Method: MT-2 cells were preseeded in 96-well plates in 100 uL of complete RPMI. Multiple concentrations of PAV-951 were serially diluted in DMSO then into an infection media prepared by diluting NL4-3 Rluc virus stock to 400 IU/100 uL with complete RPMI, which was transferred onto the MT-2 cells with a final MOI of 0.02 and final DMSO concentration of 1% in infected places. One well received DMSO only, instead of PAV-951, and one well received medium only for normalization and background collection. Cells were incubated at 37 degrees Celsius for 96 hours. 100 ul of medium was removed and discarded and 10 uL of 15 uM EnduRen luciferase substrate was added to each well, followed by incubation for 1.5 hours at 37 degrees Celsius. Plates were read on a luminescence plate reader. Bioluminescence intensity was read on a Synergy H1 BioTek plate reader. Averages and standard deviation for viral titer observed under different treatment conditions were calculated in Microsoft Excel and graphed as the percent inhibition in PAV-951 treated cells compared to untreated cells.

Row | EC50 (plasmodium) [µM] | SMILES | EC50 (Hennes-20 cells) [nM] | EC50 (NL4-3 Rluc virus) [nM]
1 | 0.036 | c1ccc(CCNc2ncnc3cc(N4CCN(c5ccc6c(NCCc7ccccc7)ncnc6c5)CC4)ccc23)cc1 [Compound 1] | < 500 | 
2 | 0.032 | CC(C)CCNc1ncnc2cc(N3CCN(c4ccc5c(NCCc6ccccc6)ncnc5c4)CC3)ccc12 [Compound 11] | < 100 | 
3 | 0.028 | COc1ccc(CNc2ncnc3cc(N4CCN(c5ccc6c(NCc7ccc(OC)cc7)ncnc6c5)CC4)ccc23)cc1 [Compound 20] |  | 
4 | 0.068 | CC(C)CCN(C)c1ncnc2cc(N3CCN(c4ccc5c(N(C)CCC(C)C)ncnc5c4)CC3)ccc12 [Compound 26] |  | 
5 | 0.03 | c1cc(CCNc2ncnc3cc(N4CCN(c5ccc6c(NCCc7ccncc7)ncnc6c5)CC4)ccc23)ccn1 [Compound 33] | < 12500 | 
6 | 0.2 | CC(C)CCNc1ncnc2cc(N3CCN(c4ccc5ccn(CCC(C)C)c5c4)CC3)ccc12 [Compound 34] |  | 
7 | 0.76 | CC(C)CCNc1ncnc2cc(N3CCN(c4ccc5c(NCCC6CCNCC6)ncnc5c4)CC3)ccc12 [Compound 36] | < 12500 | 
8 | 1.4 | CN1CCC(Nc2ncnc3cc(N4CCN(c5ccc6c(NC7CCN(C)CC7)ncnc6c5)CC4)ccc23)CC1 [Compound 38] |  | 
9 | 3 | CC(C)CCn1ccc2cc(N3CCN(c4ccc5c(ccn5CCC(C)C)c4)CC3)ccc21 [Compound 39] |  | 
10 | 0.091 | c1ccc(CCNc2ncnc3cc(N4CCN(c5ccc6c(NCCc7ccccn7)ncnc6c5)CC4)ccc23)nc1 [Compound 40] | < 12500 | 
11 | 0.06 | c1cncc(CCNc2ncnc3cc(N4CCN(c5ccc6c(NCCc7cccnc7)ncnc6c5)CC4)ccc23)c1 [Compound 41] | < 12500 | 
12 | > 10 | CC(C)CC(=O)Nc1ncnc2cc(N3CCN(c4ccc5c(NC(=O)CC(C)C)ncnc5c4)CC3)ccc12 [Compound 43] |  | 
13 |  | CC(C)(C)CNc1ncnc2cc(N3CCN(c4ccc5c(N6CCC(C)(C)CC6)ncnc5c4)CC3)ccc12 [Compound 74] | 500 | 
14 |  | CN1CCN(CCNc2ncnc3cc(N4CCN(c5ccc6c(NCC(C)(C)C)ncnc6c5)CC4)ccc23)CC1 [Compound 75] | > 2500 | 
15 |  | CC(C)(C)CNc1ncnc2cc(N3CCN(c4ccc5c(NCCc6cccnc6)ncnc5c4)CC3)ccc12 [Compound 76] | 2500 | 
16 |  | CC(C)(C)CNc1ncnc2cc(N3CCN(c4ccc5c(NCCc6ccncc6)ncnc5c4)CC3)ccc12 [Compound 77] | < 12500 | 
17 |  | CC(C)CCNc1ncnc2cc(N3CCN(c4ccc5c(NCCC6CCCC6)ncnc5c4)CC3)ccc12 [Compound 80] | 500 | 
18 |  | CC(C)CCNc1ncnc2cc(N3CCN(c4ccc5c(NCCc6nccs6)ncnc5c4)CC3)ccc12 [Compound 81] | 500 | 

Row | EC50 (plasmodium) [µM] | SMILES | EC50 (Hennes-20 cells) [nM] | EC50 (NL4-3 Rluc virus) [nM]
19 |  | CC(C)CCNc1ncnc2cc(N3CCN(c4ccc5c(NCCN6CCN(C)CC6)ncnc5c4)CC3)ccc12 [Compound 82] | < 12500 | 
20 |  | CC(C)CCNc1ncnc2cc(N3CCN(c4ccc5c(NCCc6cccnc6)ncnc5c4)CC3)ccc12 [Compound 83] | < 2500 | 
21 |  | CC(C)CCNc1ncnc2cc(N3CCN(c4ccc5c(NCCc6ccccn6)ncnc5c4)CC3)ccc12 [Compound 84] | 500 | 
22 |  | CC(C)CCNc1ncnc2cc(N3CCN(c4ccc5c(NCCc6ccncc6)ncnc5c4)CC3)ccc12 [Compound 85] | < 12500 | 
23 |  | CCN(CCN(CC)c1ccc2c(NCC(C)(C)C)ncnc2c1)c1ccc2c(NCCC(C)C)ncnc2c1 [Compound 86] | < 2500 | 
24 |  | CCCCNc1ncnc2cc(N(CC)CCN(CC)c3ccc4c(NCCC(C)C)ncnc4c3)ccc12 [Compound 87] | 2500 | 
25 |  | CCN(CCN(CC)c1ccc2c(NCCC(C)C)ncnc2c1)c1ccc2c(NCCC(C)C)ncnc2c1 [Compound 88] | < 12500 | 
26 |  | CCCCNc1ncnc2cc(N(C)CCN(C)c3ccc4c(NCCCC)ncnc4c3)ccc12 [Compound 89] | 500 | 
27 |  | CC(C)CCNc1ncnc2cc(N(C)CCN(C)c3ccc4c(NCC(C)(C)C)ncnc4c3)ccc12 [Compound 90] | 2500 | 
28 |  | CCCCNc1ncnc2cc(N(C)CCN(C)c3ccc4c(NCCC(C)C)ncnc4c3)ccc12 [Compound 91] | 2500 | 
29 |  | CCCCNc1ncnc2cc(N(CC)CCN(C)c3ccc4c(NCCC(C)C)ncnc4c3)ccc12 [Compound 92] | 2500 | 
30 |  | CCCCNc1ncnc2cc(N(C)CCN(CC)c3ccc4c(NCCCC)ncnc4c3)ccc12 [Compound 93] | < 2500 | 
31 |  | CCN(CCN(C)c1ccc2c(NCC(C)(C)C)ncnc2c1)c1ccc2c(NCCC(C)C)ncnc2c1 [Compound 94] | < 2500 | 
32 |  | CCCCNc1ncnc2cc(N(C)CCN(CC)c3ccc4c(NCCC(C)C)ncnc4c3)ccc12 [Compound 95] | < 2500 | 
33 |  | CCN(CCN(C)c1ccc2c(NCCC(C)C)ncnc2c1)c1ccc2c(NCCC(C)C)ncnc2c1 [Compound 96] | < 2500 | 
34 |  | CCCCNc1ncnc2cc(N(C)CCCN(C)c3ccc4c(NCCC(C)C)ncnc4c3)ccc12 [Compound 98] | < 2500 | 
35 |  | CC(C)CCNc1ncnc2cc(N(C)CCCN(C)c3ccc4c(NCCC(C)C)ncnc4c3)ccc12 [Compound 99] | < 12500 | 

Row | SMILES | EC50 (plasmodium) [µM] | EC50 (Hennes-20 cells) [nM] | EC50 (NL4-3 Rluc virus) [nM]
36 | Cn1cccc1CCNc1ncnc2cc(N3CCN(c4ccc5c(NCCc6cccn6C)ncnc5c4)CC3)ccc12 [Compound 5] | 0.031 | < 2500 | 190
37 | CC(C)CCNc1ncnc2cc(N3CCN(c4ccc5c(NCCC(C)C)ncnc5c4)CC3)ccc12 [Compound 6] | 0.024 | < 500 | 340
38 | CC(C)CCNc1ncnc2cc(N3CCNCC3)ccc12 [Compound 35] | 0.77 |  | 
39 | Clc1ccc2c(N3CCN(c4ncnc5cc(Cl)ccc45)CC3)ncnc2c1 [Compound 46] | > 10 |  | 510
